Reference: patent US20210269440A1 (BETTA PHARMACEUTICALS CO., LTD, priority 2018, published 2021)
Like-named read-outs stand apart in the source and are kept apart here.

Biological target: T1, PD-1/PD-L1 protein/protein interaction (Homo sapiens, UniProt Q9NZQ7)
T1 construct: Recombinant human PD-L1 protein (19-238) with a His-tag at the C-terminus; purchased AcroBiosystems PD1-H5229 (PD-L1); PD1-H5257 (PD-1)
Assay: PD-1/PD-L1 homogenous time-resolved fluorescence (HTRF) binding assay
Conditions: for biological activity (potency), as shown in Table 1: R is the group comprising morpholine
Experimental: Resolved Fluorescence (HTRF) Binding Assay
The assays were conducted in a standard black 384-well polystyrene plate with a final volume of […]. Inhibitors were first serially diluted in DMSO and then added to the plate wells before the addition of other reaction components. The final concentration of DMSO in the assay was 1%. The assays were carried out at 25° C. in the PBS buffer (pH 7.4) with 0.05% Tween-20 and 0.1% BSA. […] Plates were centrifuged and proteins were preincubated with inhibitors for 40 min. The incubation was followed by the addition of 10 μL of HTRF detection buffer supplemented with Europium cryptate-labeled anti-human IgG (PerkinElmer-AD0212) specific for Fc and anti-His antibody conjugated to SureLight®—Allophycocyanin (APC, PerkinElmer-AD0059H). After centrifugation, the plate was incubated at 25° C. for 60 min. […] Final concentrations in the assay were […] PD1, 10 nM PD-L1, 1 nM europium anti-human IgG and 20 nM anti-His-Allophycocyanin. IC50 determination was performed by fitting the curve of percent control activity versus the log of the inhibitor concentration using the GraphPad Prism 5.0 software.

[1] = HTRF, recombinant human PD-1 (Fc tag) / PD-L1 (His-tag), 25° C., PBS pH 7.4, read-out: IC50

T1 sequence (Q9NZQ7 19-238): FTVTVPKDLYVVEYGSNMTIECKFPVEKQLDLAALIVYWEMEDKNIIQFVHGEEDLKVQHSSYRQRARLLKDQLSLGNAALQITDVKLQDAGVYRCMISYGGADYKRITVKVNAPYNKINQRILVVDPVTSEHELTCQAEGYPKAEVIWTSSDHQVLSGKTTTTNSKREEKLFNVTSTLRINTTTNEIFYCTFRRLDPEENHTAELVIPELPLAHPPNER

IC50 [1]	biological activity (potency), as shown in Table 1	IC50	Structure (SMILES)
0.43 nM	much more potent		Cc1c(Nc2nccc3cc(CNCC(=O)O)cnc23)cccc1-c1cccc(OCCCN2CCOCC2)c1C [Compound 1, ((8-((2,2′-dimethyl-3′-(3-morpholinopropoxy)-[1,1′-biphenyl]-3-yl)amino)-1,7-naphthyridin-3-yl)methyl)glycine]
3 nM			Cc1c(Nc2nccc3cc(CNCC(=O)O)cnc23)cccc1-c1ccccc1 [Compound 2, ((8-((2-methyl-[1,1′-biphenyl]-3-yl)amino)-1,7-naphthyridin-3-yl)methyl)glycine]
2 nM	much more potent		Cc1c(Nc2nccc3cc(CN4CCC[C@H]4C(=O)O)cnc23)cccc1-c1cccc(OCCCN2CCOCC2)c1C [Compound 3, ((8-((2,2′-dimethyl-3′-(3-morpholinopropoxy)-[1,1′-biphenyl]-3-yl)amino)-1,7-naphthyridin-3-yl)methyl)proline]
13 nM			Cc1c(Nc2nccc3cc(CN4CCC[C@H]4C(=O)O)cnc23)cccc1-c1ccccc1 [Compound 4, ((8-((2-methyl-[1,1′-biphenyl]-3-yl)amino)-1,7-naphthyridin-3-yl)methyl)proline]
	much more potent	3.3 nM	Cc1c(Nc2nccc3cc(CN4CCCCC4C(=O)O)cnc23)cccc1-c1cccc(OCCCN2CCOCC2)c1C (stereo not drawn) [Compound 5]
2.8 nM			Cc1c(Nc2nccc3cc(CN4CC(O)CC4C(=O)O)cnc23)cccc1-c1cccc(OCCCN2CCOCC2)c1C (stereo not drawn) [Compound 6, 1-((8-((2,2′-dimethyl-3′-(3-morpholinopropoxy)-[1,1′-biphenyl]-3-yl)amino)-1,7-naphthyridin-3-yl)methyl)-4-hydroxypyrrolidine-2-carboxylic acid]
0.4 nM			Cc1c(Nc2nccc3cc(CNCCC(=O)O)cnc23)cccc1-c1cccc(OCCCN2CCOCC2)c1C [Compound 7, 3-(((8-((2,2′-dimethyl-3′-(3-morpholinopropoxy)-[1,1′-biphenyl]-3-yl)amino)-1,7-naphthyridin-3-yl)methyl)amino)propanoic acid]
0.9 nM			Cc1c(Nc2nccc3cc(CNCCCC(=O)O)cnc23)cccc1-c1cccc(OCCCN2CCOCC2)c1C [Compound 8, 4-(((8-((2,2′-dimethyl-3′-(3-morpholinopropoxy)-[1,1′-biphenyl]-3-yl)amino)-1,7-naphthyridin-3-yl)methyl)amino)butanoic acid]
1.2 nM			Cc1c(Nc2nccc3cc(CN4CCC(C(=O)O)C4)cnc23)cccc1-c1cccc(OCCCN2CCOCC2)c1C (stereo not drawn) [Compound 9, 1-((8-((2,2′-dimethyl-3′-(3-morpholinopropoxy)-[1,1′-biphenyl]-3-yl)amino)-1,7-naphthyridin-3-yl)methyl)pyrrolidine-3-carboxylic acid]
0.5 nM			Cc1c(Nc2nccc3cc(CN[C@@H](CO)C(=O)O)cnc23)cccc1-c1cccc(OCCCN2CCOCC2)c1C [Compound 10, ((8-((2,2′-dimethyl-3′-(3-morpholinopropoxy)-[1,1′-biphenyl]-3-yl)amino)-1,7-naphthyridin-3-yl)methyl)serine]
		2 to 10 nM	Cc1c(Nc2nccc3cc(CN(C)CC(=O)O)cnc23)cccc1-c1cccc(OCCCN2CCOCC2)c1C [Compound 11, N-((8-((2,2′-dimethyl-3′-(3-morpholinopropoxy)-[1,1′-biphenyl]-3-yl)amino)-1,7-naphthyridin-3-yl)methyl)-N-methylglycine]
		10 to 150 nM	Cc1c(Nc2nccc3cc(CN4CC(F)(F)CC4C(=O)O)cnc23)cccc1-c1cccc(OCCCN2CCOCC2)c1C (stereo not drawn) [Compound 12, 1-((8-((2,2′-dimethyl-3′-(3-morpholinopropoxy)-[1,1′-biphenyl]-3-yl)amino)-1,7-naphthyridin-3-yl)methyl)-4,4-difluoropyrrolidine-2-carboxylic acid]
		< 2 nM	Cc1c(Nc2nccc3cc(CNC(C)(CO)C(=O)O)cnc23)cccc1-c1cccc(OCCCN2CCOCC2)c1C (stereo not drawn) [Compound 13, 2-(((8-((2,2′-dimethyl-3′-(3-morpholinopropoxy)-[1,1′-biphenyl]-3-yl)amino)-1,7-naphthyridin-3-yl)methyl)amino)-3-hydroxy-2-methylpropanoic acid]
		< 2 nM	CCN(CC(=O)O)Cc1cnc2c(Nc3cccc(-c4cccc(OCCCN5CCOCC5)c4C)c3C)nccc2c1 [Compound 14, N-((8-((2,2′-dimethyl-3′-(3-morpholinopropoxy)-[1,1′-biphenyl]-3-yl)amino)-1,7-naphthyridin-3-yl)methyl)-N-ethylglycine]
		< 2 nM	Cc1c(Nc2nccc3cc(CN4CC(C(=O)O)C4)cnc23)cccc1-c1cccc(OCCCN2CCOCC2)c1C [Compound 15, 1-((8-((2,2′-dimethyl-3′-(3-morpholinopropoxy)-[1,1′-biphenyl]-3-yl)amino)-1,7-naphthyridin-3-yl)methyl)azetidine-3-carboxylic acid]
		< 2 nM	Cc1c(Nc2nccc3cc(CN4CCCCC4C(=O)O)cnc23)cccc1-c1cccc(OCCCN2CCCCC2)c1C (stereo not drawn) [Compound 16, 1-((8-((2,2′-dimethyl-3′-(3-(piperidin-1-yl)propoxy)-[1,1′-biphenyl]-3-yl)amino)-1,7-naphthyridin-3-yl)methyl)piperidine-2-carboxylic acid]
		2 to 10 nM	Cc1c(Nc2nccc3cc(CN4CCCCC4C(=O)O)cnc23)cccc1-c1cccc(OCCCN2CCN(C)CC2)c1C (stereo not drawn) [Compound 17, 1-((8-((2,2′-dimethyl-3′-(3-(4-methylpiperazin-1-yl)propoxy)-[1,1′-biphenyl]-3-yl)amino)-1,7-naphthyridin-3-yl)methyl)piperidine-2-carboxylic acid]
		< 2 nM	Cc1c(Nc2nccc3cc(CN4CCCCC4C(=O)O)cnc23)cccc1-c1cccc(OCCCN2CCCC2)c1C (stereo not drawn) [Compound 18, 1-((8-((2,2′-dimethyl-3′-(3-(pyrrolidin-1-yl)propoxy)-[1,1′-biphenyl]-3-yl)amino)-1,7-naphthyridin-3-yl)methyl)piperidine-2-carboxylic acid]
		< 2 nM	Cc1c(Nc2nccc3cc(CN4CCCCC4C(=O)O)cnc23)cccc1-c1cccc(OCCCN2CCC(O)C2)c1C (stereo not drawn) [Compound 19, 1-((8-((3′-(3-(3-hydroxypyrrolidin-1-yl)propoxy)-2,2′-dimethyl-[1,1′-biphenyl]-3-yl)amino)-1,7-naphthyridin-3-yl)methyl)piperidine-2-carboxylic acid]
		> 150 nM	Cc1c(Nc2nccc3cc(CN4CCCCC4C(=O)O)cnc23)cccc1-c1cccc2c1CCN2CCCN1CCOCC1 (stereo not drawn) [Compound 20, 1-((8-((2-methyl-3-(1-(3-morpholinopropyl)indolin-4-yl)phenyl)amino)-1,7-naphthyridin-3-yl)methyl)piperidine-2-carboxylic acid]
		< 2 nM	CCN(CC)CCCOc1cccc(-c2cccc(Nc3nccc4cc(CN5CCCCC5C(=O)O)cnc34)c2C)c1C (stereo not drawn) [Compound 21, 1-((8-((3′-(3-(diethylamino)propoxy)-2,2′-dimethyl-[1,1′-biphenyl]-3-yl)amino)-1,7-naphthyridin-3-yl)methyl)piperidine-2-carboxylic acid]
		2 to 10 nM	Cc1c(Nc2nccc3cc(CN4CCCCC4C(=O)O)cnc23)cccc1-c1cccc(OCCCN(C)Cc2ccccc2)c1C (stereo not drawn) [Compound 22, 1-((8-((3′-(3-(benzyl(methyl)amino)propoxy)-2,2′-dimethyl-[1,1′-biphenyl]-3-yl)amino)-1,7-naphthyridin-3-yl)methyl)piperidine-2-carboxylic acid]
		< 2 nM	CCNCCCOc1cccc(-c2cccc(Nc3nccc4cc(CN5CCCCC5C(=O)O)cnc34)c2C)c1C (stereo not drawn) [Compound 23, 1-((8-((3′-(3-(ethylamino)propoxy)-2,2′-dimethyl-[1,1′-biphenyl]-3-yl)amino)-1,7-naphthyridin-3-yl)methyl)piperidine-2-carboxylic acid]
		> 150 nM	CC(=O)NCCCOc1cccc(-c2cccc(Nc3nccc4cc(CN5CCCCC5C(=O)O)cnc34)c2C)c1C (stereo not drawn) [Compound 24, 1-((8-((3′-(3-acetamidopropoxy)-2,2′-dimethyl-[1,1′-biphenyl]-3-yl)amino)-1,7-naphthyridin-3-yl)methyl)piperidine-2-carboxylic acid]
		> 150 nM	Cc1c(Nc2nccc3cc(CN4CCCCC4C(=O)O)cnc23)cccc1-c1cccc(OCCCNC(N)=O)c1C (stereo not drawn) [Compound 25, 1-((8-((2,2′-dimethyl-3′-(3-ureidopropoxy)-[1,1′-biphenyl]-3-yl)amino)-1,7-naphthyridin-3-yl)methyl)piperidine-2-carboxylic acid]
		> 150 nM	Cc1c(Nc2nccc3cc(CN4CCCCC4C(=O)O)cnc23)cccc1-c1cccc(OCCCNC(=N)N)c1C (stereo not drawn) [Compound 26, 1-((8-((3′-(3-guanidinopropoxy)-2,2′-dimethyl-[1,1′-biphenyl]-3-yl)amino)-1,7-naphthyridin-3-yl)methyl)piperidine-2-carboxylic acid]
		> 150 nM	Cc1c(Nc2nccc3cc(CN4CCCCC4C(=O)O)cnc23)cccc1-c1cccc(OCCCNS(C)(=O)=O)c1C (stereo not drawn) [Compound 27, 1-((8-((2,2′-dimethyl-3′-(3-(methylsulfonamido)propoxy)-[1,1′-biphenyl]-3-yl)amino)-1,7-naphthyridin-3-yl)methyl)piperidine-2-carboxylic acid]
